One assay addresses sGC α1/β1 heterodimer (Homo sapiens (Human), UniProt Q02108+Q02153). Nature of the assay: Cell-based sGC functional assay (CASA assay), cGMP by HTRF. The conditions noted are these: CHO-K1/sGC cells; for Emax: CHO-K1, cGMP production as percentage of maximum of compound A (set to 100%), read-out: % Activation; for EC50: inflection point of cGMP production, 4P fit, read-out: IP. The essentials: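 CHO-K1 cells stably expressing human sGC α1/β1, with 0.5 mM IBMX, pre-incubated ±1 μM DETA-NO 30 min at 25° C, then compound 1 hr at 37° C (2.5% DMSO). cGMP by HTRF; activation as % of reference activator maximum, 4P fit giving inflection point and maximum […].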
For orientation: Time-resolved FRET reads energy transfer from a long-lived donor to a nearby acceptor.

In assay [1] the target is human recombinant sGC enzyme (Homo sapiens (Human), UniProt Q02108+Q02153). In words: SEC competition binding assay with [3H] Compound B radioligand. The conditions noted are these: displacement of 1.6 nM [3H] Compound B, 24 h at 37° C. The essentials:
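Recombinant human sGC incubated with 1.6 nM [3H] Compound B and test compounds for 24 h at 37° C. Buffer: 50 mM triethanolamine pH 7.4, 3 mM MgCl2, 0.025% BSA, 2 mM DTT, 300 μM DETA/NO, 400 μM GTP, 1% DMSO. Bound ligand separated by gel filtration and counted by scintillation; non-specific binding with 1 μM Compound B; Ki from one-site fit.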

For orientation: Ki means the equilibrium dissociation constant of an inhibitor or competing ligand from its target. In the case of `CC1(c2ccc(C(F)(F)F)c(O)c2)C(=O)Nc2nc(-c3cn4ccnc4c(Cc4cc(F)cc(F)c4)n3)nc(N)c21` (stereo not drawn) [Example 46-B, 4-Amino-2-{8-[(3,5-difluorophenyl)methyl]imidazo[1,2-a]pyrazin-6-yl}-5-(3-hydroxy-4-(trifluoromethyl)phenyl)-5-methyl-5,7-dihydro-6H-pyrrolo[2,3-d]pyrimidin-6-one], on sGC α1/β1 heterodimer, the Emax is 117% and the EC50 came to 893 nM. Also, in assay [1], the Ki was 0.691 nM.
Regarding `CC1(c2ccc(O)cc2)C(=O)Nc2nc(-c3cn4ncnc4c(CCC(F)(F)C(F)(F)F)n3)nc(N)c21` (stereo not drawn) [Example 80-B, 4-Amino-5-(4-hydroxyphenyl)-5-methyl-2-(8-(3,3,4,4,4-pentafluorobutyl)-[1,2,4]triazolo[1,5-a]pyrazin-6-yl)-5,7-dihydro-6H-pyrrolo[2,3-d]pyrimidin-6-one], at sGC α1/β1 heterodimer, the Emax came to 70% and the EC50 was 19 nM. For the same molecule, the Ki in assay [1] came out at 9.98 nM.
Taken in the same sequence, the figures for `CC1(c2cc(O)c(C#N)c(Cl)c2)C(=O)Nc2nc(-c3cn4ncnc4c(CC4CCCCC4)n3)nc(N)c21` (stereo not drawn) [Example 150-A, 4-(4-amino-2-{8-(cyclohexylmethyl)-[1,2,4]triazolo[1,5-a]-pyrazin-6-yl}-5-methyl-6-oxo-6,7-dihydro-5H-pyrrolo-[2,3-d]pyrimidin-5-yl)-2-chloro-6-hydroxy-benzonitrile] were 96%, 4120 nM and 0.989 nM.
For `CC1(c2ccc(Cl)c(O)c2)C(=O)Nc2nc(-c3cn4ccnc4c(CCC4CCCCC4)n3)nc(N)c21` (stereo not drawn) [Example 63-A, 4-Amino-5-(4-chloro-3-hydroxyphenyl)-2-(8-(2-cyclohexylethyl)imidazo[1,2-a]pyrazin-6-yl)-5-methyl-5,7-dihydro-6H-pyrrolo[2,3-d]pyrimidin-6-one] the same measures were 121%, 600 nM and 2.2 nM.
As to `CC1(c2cccc(O)c2)C(=O)Nc2nc(-c3cn4ccnc4c(CC4CCCCC4)n3)nc(N)c21` (stereo not drawn) [Example 82-B, 4-Amino-2-(8-(cyclohexylmethyl)imidazo[1,2-a]pyrazin-6-yl)-5-(3-hydroxyphenyl)-5-methyl-5,7-dihydro-6H-pyrrolo[2,3-d]pyrimidin-6-one], on sGC α1/β1 heterodimer, the Emax came out at 111% and the EC50 was determined as 207 nM. Further, the Ki in assay [1] was 0.402 nM.
For `CC1(c2ccc(F)c(O)c2)C(=O)Nc2nc(-c3cn4ccnc4c(Cc4ccc(F)cc4F)n3)nc(N)c21` (stereo not drawn) [Example 22-B, 4-Amino-2-{8-[(2,4-difluorophenyl)methyl]imidazo[1,2-a]pyrazin-6-yl}-5-(4-fluoro-3-hydroxyphenyl)-5-methyl-5,7-dihydro-6H-pyrrolo[2,3-d]pyrimidin-6-one] the same measures were 128%, 74 nM and 0.214 nM.
Taken in the same sequence, the figures for `CC1(c2ccc(Cl)c(O)c2)C(=O)Nc2nc(-c3cn4ncnc4c(CCC(F)(F)C(F)(F)F)n3)nc(NCCCC(F)(F)F)c21` (stereo not drawn) [Example 139-A, 5-(4-Chloro-3-hydroxy-phenyl)-5-methyl-2-(8-(3,3,4,4,4-pentafluoro-butyl)-[1,2,4]triazolo-[1,5-a]pyrazin-6-yl)-4-((4,4,4-trifluorobutyl)-amino)-5,7-dihydro-6H-pyrrolo[2,3-d]pyrimidin-6-one] were 68%, 349 nM and 3.54 nM.
Consider `CC1(c2cccc(O)c2)C(=O)Nc2nc(-c3cn4ccnc4c(Cc4cccc(Cl)c4)n3)nc(N)c21` (stereo not drawn) [Example 124-B, 4-Amino-2-{8-[(3-chlorophenyl)methyl]-imidazo[1,2-a]pyrazin-6-yl}-5-(3-hydroxyphenyl)-5-methyl-5,7-dihydro-6H-pyrrolo[2,3-d]pyrimidin-6-one], for which, on sGC α1/β1 heterodimer, the Emax is 113% and the EC50 came out at 224 nM. In addition, in assay [1], the Ki is 2.63 nM.
Taken in the same sequence, the figures for `Cc1cccc(Cc2nc(-c3nc(N)c4c(n3)NC(=O)C4(C)c3cccc(O)c3)cn3ccnc23)c1` (stereo not drawn) [Example 122-B, 4-Amino-5-(3-hydroxy-phenyl)-5-methyl-2-{8-[(3-methylphenyl)methyl]-imidazo[1,2-a]pyrazin-6-yl}-5,7-dihydro-6H-pyrrolo-[2,3-d]pyrimidin-6-one] were 106%, 1820 nM and 15.6 nM.
Taken in the same sequence, the figures for `Cc1cn2cc(-c3nc(N)c4c(n3)NC(=O)C4(C)c3ccc(Cl)c(O)c3)nc(Cc3ccccc3F)c2n1` (stereo not drawn) [Example 100-A, 4-Amino-5-(4-chloro-3-hydroxyphenyl)-2-{8-[(2-fluorophenyl)methyl]-2-methylimidazo[1,2-a]pyrazin-6-yl}-5-methyl-5,7-dihydro-6H-pyrrolo[2,3-d]pyrimidin-6-one] were 106%, 652 nM and 0.544 nM.
For `CC1(c2cccc(O)c2)C(=O)Nc2nc(-c3cn4ccnc4c(CCC(F)(F)C(F)(F)F)n3)nc(N)c21` (stereo not drawn) [Example 79-B, 4-Amino-5-(3-hydroxyphenyl)-5-methyl-2-(8-(3,3,4,4,4-pentafluorobutyl)imidazo[1,2-a]pyrazin-6-yl)-5,7-dihydro-6H-pyrrolo[2,3-d]pyrimidin-6-one] the same measures were 108%, 96 nM and 9.41 nM.
Regarding `CC1(c2ccc(Cl)c(O)c2)C(=O)Nc2nc(-c3cn4ncnc4c(CCCCF)n3)nc(N)c21` (stereo not drawn) [Example 106-A, 4-Amino-5-(4-chloro-3-hydroxyphenyl)-2-(8-(4-fluorobutyl)-[1,2,4]triazolo[1,5-a]pyrazin-6-yl)-5-methyl-5,7-dihydro-6H-pyrrolo[2,3-d]pyrimidin-6-one], at sGC α1/β1 heterodimer, the Emax worked out at 81% and the EC50 turned out to be 902 nM. In assay [1], the Ki is 1.84 nM.
For `CC1(c2cc(O)c(C#N)c(Cl)c2)C(=O)Nc2nc(-c3cn4ccnc4c(CC4CCCCC4)n3)nc(N)c21` (stereo not drawn) [Example 142-A, 4-(4-amino-2-{8-(cyclohexylmethyl)-imidazo[1,2-a]pyrazin-6-yl}-5-methyl-6-oxo-6,7-dihydro-5H-pyrrolo-[2,3-d]pyrimidin-5-yl)-2-chloro-6-hydroxy-benzonitrile] the same measures were 74%, 3530 nM and 1.14 nM.
Taken in the same sequence, the figures for `CC1(c2ccc(O)c(Cl)c2)C(=O)Nc2nc(-c3cn4ncnc4c(Cc4ccc(F)cc4)n3)nc(N)c21` (stereo not drawn) [Example 66-B, 4-Amino-5-(3-chloro-4-hydroxyphenyl)-2-{8-[(4-fluorophenyl)methyl]-[1,2,4]triazolo[1,5-a]pyrazin-6-yl}-5-methyl-5,7-dihydro-6H-pyrrolo[2,3-d]pyrimidin-6-one] were 141%, 2150 nM and 2.57 nM.
Taken in the same sequence, the figures for `CC1(c2cc(O)c(C#N)c(Cl)c2)C(=O)Nc2nc(-c3cn4ccnc4c(Cc4ccccc4F)n3)nc(N)c21` (stereo not drawn) [Example 143-A, 4-(4-amino-2-{8-(2-fluorobenzyl)imidazo-[1,2-a]pyrazin-6-yl}-5-methyl-6-oxo-6,7-dihydro-5H-pyrrolo-[2,3-d]pyrimidin-5-yl)-2-chloro-6-hydroxy-benzonitrile] were 79%, 2970 nM and 1.09 nM.
For `CC1(c2cc(O)c(Cl)cn2)C(=O)Nc2nc(-c3cn4ccnc4c(Cc4c(F)cccc4F)n3)nc(N)c21` (stereo not drawn) [Example 98-B, 4-Amino-5-(5-chloro-4-hydroxypyridin-2-yl)-2-{8-[(2,6-difluorophenyl)methyl]imidazo[1,2-a]pyrazin-6-yl}-5-methyl-5,7-dihydro-6H-pyrrolo[2,3-d]pyrimidin-6-one], at sGC α1/β1 heterodimer, the Emax was determined as 73% and the EC50 turned out to be 3300 nM. In assay [1], the Ki turned out to be 8.31 nM.
For `CC1(c2cc(Cl)c(O)c(Cl)c2)C(=O)Nc2nc(-c3cn4ncnc4c(CC4CCCCC4)n3)nc(N)c21` (stereo not drawn) [Example 112-B, 4-Amino-2-(8-(cyclo-hexylmethyl)-[1,2,4]-triazolo[1,5-a]pyrazin-6-yl)-5-(3,5-dichloro-4-hydroxyphenyl)-5-methyl-5,7-dihydro-6H-pyrrolo[2,3-d]pyrimidin-6-one] the same measures were 112%, 16 nM and 1.78 nM.
For `CC1(c2cccc(O)c2)C(=O)Nc2nc(-c3cn4ccnc4c(Cc4cccc(F)c4)n3)nc(N)c21` (stereo not drawn) [Example 121-B, 4-Amino-2-{8-[(3-fluorophenyl)methyl]imidazo[1,2-a]pyrazin-6-yl}-5-(3-hydroxyphenyl)-5-methyl-5,7-dihydro-6H-pyrrolo[2,3-d]pyrimidin-6-one] the same measures were 120%, 369 nM and 0.382 nM.
On to `CC1(c2cccc(O)c2)C(=O)Nc2nc(-c3cn4ccnc4c(Cc4ccc(F)cc4)n3)nc(N)c21` (stereo not drawn) [Example 31-B, 4-Amino-2-{8-[(4-fluorophenyl)methyl]imidazo[1,2-a]pyrazin-6-yl}-5-(3-hydroxyphenyl)-5-methyl-5,7-dihydro-6H-pyrrolo[2,3-d]pyrimidin-6-one], for which, on sGC α1/β1 heterodimer, the Emax amounted to 93% and the EC50 worked out at 82 nM. For the same molecule, the Ki in assay [1] turned out to be 0.274 nM.
With `CC(C)CCc1nc(-c2nc(N)c3c(n2)NC(=O)C3(C)c2ccc(O)cc2)cn2ccnc12` (stereo not drawn) [Example 58-B, 4-Amino-5-(4-hydroxyphenyl)-2-(8-isopentylimidazo[1,2-a]pyrazin-6-yl)-5-methyl-5,7-dihydro-6H-pyrrolo[2,3-d]pyrimidin-6-one], at sGC α1/β1 heterodimer, the Emax was determined as 121% and the EC50 stood at 164 nM. Besides, in assay [1], the Ki came out at 1.54 nM.
